Assay results as given in patent US10925261B2, “Method for inducing feminization in Tilapia aurea via immersion with ethinyl estradiol” (GALLANT OCEAN INTERNATIONAL, INC., priority 2018, dated 2021).

System: Tilapia aurea fry
Assay: Induction of feminization in Tilapia aurea fry via immersion treatment with ethinyl estradiol
Format: in vivo
Settings: 3 minutes, 25° C., 3 dph fry
Procedure: Males and females of Tilapia aurea (about 12 months of age) provided by Prof. Chien-Hsien Kuo from the Department of Aquatic Biosciences at National Chiayi University (Taiwan) served as the parent fish in the following example. The male and female fish were separately raised in concrete ponds provided with water maintained at 25° C. and about 6 mg/L of dissolved oxygen under natural light, and were provided with feed ad libitum. Mating was carried out with a male-to-female ratio of 2:5. Fertilized eggs were flushed out from the oral cavity of the female fish to be collected, followed by incubation at 25° C. for 7 to 14 days. 3 dph fish fry were obtained.
Two immersion solutions respectively having ethinyl estradiol concentrations shown in Table 1 below were each prepared as follows. An appropriate amount of ethinyl estradiol was dissolved in 10 mL of ethanol, followed by mixing with 5 L of water in a water tank.
5 trials of feminization induction were conducted using a respective one of the two immersion solutions. Specifically, for each trial of feminization induction, the 3 dph Tilapia aurea fry (the amount thereof is shown in Table 1) were placed in the respective immersion solution at 25° C. for 3 minutes. […] After seven months of breeding, the gender of all the surviving fish was observed, and the feminization rate (i.e. the percentage of females) was calculated.

## C#C[C@]1(O)CC[C@H]2[C@@H]3CCc4cc(O)ccc4[C@H]3CC[C@@]21C [ethinyl estradiol]
Immersion 142.85 ppm, gender observed after seven months of breeding, trial 5
  Feminization rate (%) (percentage of females): 87%
Immersion 142.85 to 200 ppm, all 5 trials
  Feminization rate of each trial: ≥ 87%
